# According to ChEMBL document CHEMBL1134339, “New 1-aryl-3-(4-arylpiperazin-1-yl)propane derivatives, with dual action at 5-HT1A serotonin receptors and serotonin transporter, as a new class of antidepressants” (J Med Chem, 2001):
# Key:
# [1] = molecular target: T1, 5-hydroxytryptamine receptor 1A (Rattus norvegicus, UniProt P19327); assay: Binding affinity to 5-hydroxytryptamine 1A receptor (5-HT 1A receptor, serotonin receptor) from rat cortex using [3H]8-OH-DPAT as radioligand
# T1 sequence (P19327 whole entry): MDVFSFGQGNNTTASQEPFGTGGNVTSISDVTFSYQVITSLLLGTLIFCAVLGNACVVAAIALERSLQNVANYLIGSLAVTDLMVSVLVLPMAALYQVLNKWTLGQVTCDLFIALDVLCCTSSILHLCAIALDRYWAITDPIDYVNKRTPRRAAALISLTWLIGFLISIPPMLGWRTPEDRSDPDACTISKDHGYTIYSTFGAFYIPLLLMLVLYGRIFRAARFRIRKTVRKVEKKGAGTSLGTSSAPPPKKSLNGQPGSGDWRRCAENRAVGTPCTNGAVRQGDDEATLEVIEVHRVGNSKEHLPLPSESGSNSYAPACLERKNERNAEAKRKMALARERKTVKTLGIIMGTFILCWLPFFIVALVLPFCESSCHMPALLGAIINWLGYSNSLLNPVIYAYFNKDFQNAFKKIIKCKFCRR
# [2] = molecular target: Sodium-dependent serotonin transporter (Rattus norvegicus, UniProt P31652); assay: Binding affinity towards Serotonin transporter from rat cortex measured using [3H]paroxetine; details: read-out: Ki
# Sodium-dependent serotonin transporter, sequence (P31652 whole entry): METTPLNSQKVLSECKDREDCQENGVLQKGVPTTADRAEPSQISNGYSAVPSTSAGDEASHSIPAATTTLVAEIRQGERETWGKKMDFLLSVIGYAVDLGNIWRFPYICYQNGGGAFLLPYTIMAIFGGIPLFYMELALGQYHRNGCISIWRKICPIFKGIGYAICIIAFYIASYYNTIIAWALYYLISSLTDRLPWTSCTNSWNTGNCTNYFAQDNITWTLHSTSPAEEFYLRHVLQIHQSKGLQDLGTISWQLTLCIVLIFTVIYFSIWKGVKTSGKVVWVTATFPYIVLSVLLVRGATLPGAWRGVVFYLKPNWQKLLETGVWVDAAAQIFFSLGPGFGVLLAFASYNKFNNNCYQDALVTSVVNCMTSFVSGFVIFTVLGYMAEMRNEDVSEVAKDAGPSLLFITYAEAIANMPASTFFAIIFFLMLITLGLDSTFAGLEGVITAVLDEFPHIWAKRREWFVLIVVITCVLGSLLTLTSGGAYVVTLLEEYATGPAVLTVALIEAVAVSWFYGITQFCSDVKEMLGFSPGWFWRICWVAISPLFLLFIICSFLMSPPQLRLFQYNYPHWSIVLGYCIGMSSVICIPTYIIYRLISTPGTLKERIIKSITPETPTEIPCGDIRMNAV
Compound,Ki ([1]; read-out: Ki),Ki [2],Ki [1]
COc1ccc(C(CCN2CCN(c3ccccc3OC)CC2)Oc2ccc(C(F)(F)F)cc2)cc1 (centres undefined),1000 nM,650 nM,
COc1cc(F)ccc1N1CCN(CCC(=O)c2csc3ccccc23)CC1,500 nM,500 nM,
COc1ccccc1N1CCN(CCC(=O)c2ccccc2)CC1,,> 5000 nM,
OC(CCN1CCN(c2ccc(Cl)cc2)CC1)c1ccc2ccccc2c1 (centres undefined),> 5000 nM,10 nM,
O=C(CCN1CCN(c2ccccc2O)CC1)c1csc2ccccc12,,490 nM,110 nM
FC(F)(F)c1ccc(OC(CCN2CCN(c3ccccn3)CC2)c2ccccc2)cc1 (centres undefined),,1500 nM,
COc1ccccc1N1CCN(CCC(=O)c2ccc([N+](=O)[O-])s2)CC1,,> 5000 nM,340 nM
COc1ccccc1N1CCN(CCC(O)c2ccsc2)CC1 (centres undefined),50 nM,385 nM,
Cc1cc(C(O)CCN2CCN(c3ccccc3O)CC2)c(C)s1 (centres undefined),,2500 nM,90 nM
COc1ccccc1N1CCN(CCC(=O)c2ccc(-c3ccccc3)cc2)CC1,,700 nM,3650 nM
OC(CCN1CCN(c2ccc(Cl)cc2)CC1)c1cccs1 (centres undefined),> 5000 nM,290 nM,
O=C(CCN1CCN(c2ccccc2Cl)CC1)c1ccccc1,180 nM,> 5000 nM,
O=C(CCN1CCN(c2cccc3ccccc23)CC1)c1ccsc1,,800 nM,35 nM
OC(CCN1CCN(c2ccccc2Cl)CC1)c1ccccc1 (centres undefined),,> 5000 nM,115 nM
COc1ccccc1N1CCN(CCC(O)c2ccc3ccccc3c2)CC1 (centres undefined),,380 nM,420 nM
COc1ccc(N2CCN(CCC(=O)c3ccccc3)CC2)cc1,5000 nM,> 5000 nM,
COc1cc(Cl)ccc1N1CCN(CCC(=O)c2csc3ccccc23)CC1,500 nM,275 nM,
COc1cc(F)ccc1N1CCN(CCC(O)c2csc3ccccc23)CC1 (centres undefined),500 nM,12 nM,
COc1cc(F)ccc1N1CCN(CCC(=O)c2cc(C)sc2C)CC1,13 nM,750 nM,
COc1ccc(N2CCN(CCC(O)c3ccccc3)CC2)cc1 (centres undefined),> 5000 nM,1150 nM,
FC(F)(F)c1ccc(OC(CCN2CCN(c3ccccc3Cl)CC2)c2ccccc2)cc1 (centres undefined),> 5000 nM,> 5000 nM,
O=C(CCN1CCN(c2cccc3ccccc23)CC1)c1csc2ccccc12,100 nM,500 nM,
O=C(CCN1CCN(c2ccc(F)cc2)CC1)c1ccccc1,800 nM,> 5000 nM,
COc1ccccc1N1CCN(CCC(Oc2ccc(C(F)(F)F)cc2)c2ccc(-c3ccccc3)cc2)CC1 (centres undefined),> 5000 nM,> 5000 nM,
COc1ccccc1N1CCN(CCC(=O)c2cccs2)CC1,10 nM,> 5000 nM,
COc1ccccc1N1CCN(CCC(Oc2ccc(C(F)(F)F)cc2)c2ccccc2)CC1 (centres undefined),,650 nM,450 nM

Compound,Ki ([1]; read-out: Ki),Ki [2],Ki [1]
O=C(CCN1CCN(c2ccc(Cl)cc2)CC1)c1ccccc1,800 nM,300 nM,
FC(F)(F)c1ccc(OC(CCN2CCN(c3ncccn3)CC2)c2ccccc2)cc1 (centres undefined),1600 nM,1600 nM,
OC(CCN1CCN(c2ccc(Cl)cc2)CC1)c1ccsc1 (centres undefined),,200 nM,
COc1ccccc1N1CCN(CCC(=O)c2ccc([N+](=O)[O-])cc2)CC1,50 nM,> 5000 nM,
COc1ccccc1N1CCN(CCC(Oc2ccc3c(c2)OCO3)c2ccsc2)CC1 (centres undefined),,6500 nM,55 nM
OC(CCN1CCN(c2ccccc2Cl)CC1)c1ccsc1 (centres undefined),200 nM,> 5000 nM,
O=[N+]([O-])c1ccc(N2CCN(CCC(O)c3ccccc3)CC2)cc1 (centres undefined),> 5000 nM,1150 nM,
COc1cc(Cl)ccc1N1CCN(CCC(O)c2csc3ccccc23)CC1 (centres undefined),,35 nM,361 nM
FC(F)(F)c1ccc(OC(CCN2CCN(c3ccc(Cl)cc3)CC2)c2ccccc2)cc1 (centres undefined),> 5000 nM,350 nM,
COc1ccccc1N1CCN(CCC(Oc2ccc3c(c2)OCO3)c2ccccc2)CC1 (centres undefined),20 nM,500 nM,
COc1ccccc1N1CCN(CCC(=O)c2ccc3ccccc3c2)CC1,250 nM,1000 nM,
COc1ccccc1N1CCN(CCC(=O)c2cc(C)sc2C)CC1,5 nM,1350 nM,
COc1ccccc1N1CCN(CC/C(=N\O)c2ccccc2)CC1,,5000 nM,17.5 nM
Clc1ccc(N2CCN(CCC(Oc3ccc4c(c3)OCO4)c3ccccc3)CC2)cc1 (centres undefined),,375 nM,550 nM
COc1ccc(C(O)CCN2CCN(c3ccccc3OC)CC2)cc1 (centres undefined),,500 nM,325 nM
Cc1cc(C(=O)CCN2CCN(c3ccccc3O)CC2)c(C)s1,,800 nM,7.5 nM
COc1ccc(N2CCN(CCC(Oc3ccc(C(F)(F)F)cc3)c3ccccc3)CC2)cc1 (centres undefined),> 5000 nM,> 5000 nM,
COc1ccc(OC(CCN2CCN(c3ccc(Cl)cc3)CC2)c2ccccc2)cc1 (centres undefined),1450 nM,500 nM,
COc1cc(Cl)ccc1N1CCN(CCC(=O)c2cc(C)sc2C)CC1,500 nM,275 nM,
COc1ccccc1N1CCN(CC/C(=N/O)c2cc(C)sc2C)CC1,130 nM,> 5000 nM,
COc1ccccc1N1CCN(CC/C(=N\O)c2ccsc2)CC1,,950 nM,6.5 nM
OC(CCN1CCN(c2ccccn2)CC1)c1ccccc1 (centres undefined),,> 5000 nM,155 nM
COc1ccccc1N1CCN(CC/C(=N/O)c2ccc(C)s2)CC1,75 nM,5000 nM,
COc1ccccc1N1CCN(CCC(O)c2ccc(C)s2)CC1 (centres undefined),,5000 nM,34 nM
Cc1cc(C(=O)CCN2CCN(c3cccc4ccccc34)CC2)c(C)s1,100 nM,370 nM,
COc1ccccc1N1CCN(CCC(O)c2ccc(-c3ccccc3)cc2)CC1 (centres undefined),,175 nM,850 nM

Compound,Ki ([1]; read-out: Ki),Ki [2],Ki [1]
COc1ccc(OC(CCN2CCN(c3ccccc3OC)CC2)c2ccccc2)cc1 (centres undefined),,1450 nM,90 nM
COc1ccccc1N1CCN(CCC(Oc2cccc3ccccc23)c2cccs2)CC1 (centres undefined),,> 5000 nM,220 nM
COc1ccccc1N1CCN(CCC(O)c2cccs2)CC1 (centres undefined),,1250 nM,19 nM
O=C(CCN1CCN(c2ccc(Cl)cc2)CC1)c1cccs1,> 5000 nM,60 nM,
O=[N+]([O-])c1ccc(N2CCN(CCC(Oc3ccc(C(F)(F)F)cc3)c3ccccc3)CC2)cc1 (centres undefined),> 5000 nM,2500 nM,
O=C(CCN1CCN(c2ccccc2Cl)CC1)c1ccsc1,200 nM,> 5000 nM,
OC(CCN1CCN(c2ncccn2)CC1)c1ccccc1 (centres undefined),,> 5000 nM,375 nM
COc1ccccc1N1CCN(CCC(=O)c2ccc(C)s2)CC1,17.5 nM,> 5000 nM,
O=C(CCN1CCN(c2ccccn2)CC1)c1ccccc1,50 nM,> 5000 nM,
COc1ccccc1N1CCN(CCC(O)c2ccccc2)CC1 (centres undefined),,> 5000 nM,47.5 nM
O=C(CCN1CCN(c2ccc(Cl)cc2)CC1)c1ccc2ccccc2c1,> 5000 nM,240 nM,
COc1ccccc1N1CCN(CC/C(=N\O)c2cc(C)sc2C)CC1,85 nM,5000 nM,
O=C(CCN1CCN(c2ccc(Cl)cc2)CC1)c1ccsc1,,220 nM,
COc1ccccc1N1CCN(CCC(O)c2ccc([N+](=O)[O-])cc2)CC1 (centres undefined),10 nM,2500 nM,
Fc1ccc(N2CCN(CCC(Oc3ccc(C(F)(F)F)cc3)c3ccccc3)CC2)cc1 (centres undefined),> 5000 nM,500 nM,
O=C(CCN1CCN(c2ccccc2O)CC1)c1ccc2ccccc2c1,1000 nM,2500 nM,
O=C(CCN1CCN(c2ncccn2)CC1)c1ccccc1,,> 5000 nM,120 nM
OC(CCN1CCN(c2ccc(Cl)cc2)CC1)c1csc2ccccc12 (centres undefined),5000 nM,50 nM,
OC(CCN1CCN(c2ccc(Cl)cc2)CC1)c1ccccc1 (centres undefined),800 nM,350 nM,
O/N=C(\CCN1CCN(c2ccc(Cl)cc2)CC1)c1ccccc1,> 5000 nM,5000 nM,
COc1ccccc1N1CCN(CCC(Oc2ccc(C(F)(F)F)cc2)c2ccsc2)CC1 (centres undefined),,460 nM,255 nM
O=C(CCN1CCN(c2ccc(Cl)cc2)CC1)c1csc2ccccc12,> 5000 nM,5000 nM,
O=C(CCN1CCN(c2ccc([N+](=O)[O-])cc2)CC1)c1ccccc1,> 5000 nM,> 5000 nM,
COc1ccc(C(=O)CCN2CCN(c3ccccc3OC)CC2)cc1,,> 5000 nM,
OC(CCN1CCN(c2ccc(F)cc2)CC1)c1ccccc1 (centres undefined),,4700 nM,145 nM
